Experimental data as given in US8551951B2, “Pharmaceutical preparations and methods for inhibiting tumors” (Aenorasis SA Pharmaceuticals and Medical Devices, priority 2000, dated 2013).

Key:
PC-3 cells = experiment: DNA fragmentation assay (DNA ladder, apoptosis); type: cell-based, human
Method: Cell apoptosis result in DNA fragmentation can be evaluated by the presence of a DNA ladder visualized when DNA is run on a 1.2% agarose gel. DNA ladder assay (apoptosis assay) was performed following exposure of PC-3 to various concentrations of the polypeptides for 72 hours. The polypeptides that were used in this particular experiment are polypeptide 7-21 (SEQ ID NO: 4), polypeptide PCK3145 (SEQ ID NO: 5) and polypeptide 76-94 (SEQ ID NO: 6). […] This effect was especially evident following treatment with PCK3145 (SEQ ID NO: 5), which is illustrated by FIG. 7. Lane 1 of the gel illustrated in FIG. 7 represents a lambda HindIII digest standard.
Apoptosis of PC-3 cells, following a 72 hours exposure to PCK3145 at 500 μg/ml concentration, was evaluated in supplemented media by DNA fragmentation assay. Doxorubicin was used as a reference positive control. Untreated cells and PCK3145-treated cells were harvested and the DNA was isolated. Isolated DNA was run on a 1.2% agarose gel containing Ethidium Bromide (EtBr). […] Lane 1 of the gel illustrated in FIG. 25 represents the DNA marker (100 base pair DNA ladder). Lane 2 of the gel illustrated in FIG. 25 represents a control of untreated PC-3 cells.

Mat Ly Lu (MLL) tumor [1] = experiment: Study MLL-2, Mat Ly Lu tumor implanted in SCID mice; type: in vivo; details: Doxorubicin 5 mg/kg i.v. single bolus on day 3; p=0.002
Method: (§1) Studies MLL-1 and MLL-2 were performed as follows; on day 0, male Copenhagen rats were injected subcutaneously with 5×10^5 Mat LyLu cells per rat. These cells were derived from cultures of Mat LyLu cell line grown in RPMI media containing 10% (v/v) of fetal calf serum in logarithmic phase of growth. Cells were harvested from the culture flasks by trypsinization, were centrifuged at 1200 rotation per minute (rpm) and washed three timed with Hanks balanced salt solution (HBSS). Following washing, cells were counted and adjusted to a concentration of 5×10^6 cells/ml in HBSS. A 0.1 ml volume of tumor cell inoculum containing 5×10^5 cells was administered subcutaneously into the flank region of each rat. Three days after tumor cell implantation (i.e., inoculation), animals were treated daily by a subcutaneous injection of the desired polypeptide until day 13.
Experiments illustrated in study MLL-2 show the anti-tumor efficacy validation of rHuPSP94 against Mat Ly Lu (MLL) tumor implanted in severe combined immunodeficiency (SCID) mice (Protocol based on S. Garde et al.; The Prostate, 22: 225-233, 1993).
For study MLL-2 (FIG. 13), tumor-implanted Scid mice were separated in different groups each receiving various amounts of rHuPSP94 or control reagents. The different groups used in these experiments are illustrated below. Each group contained 8 mice.

Dunning Mat Ly Lu tumors = experiment: Studies MLL-5 and MLL-6, Mat Ly Lu tumor implanted in Copenhagen rats; type: in vivo; details: Doxorubicin 5000 μg/kg single bolus i.v. on day 3 p.t.i
Method: Anti-tumor efficacy evaluation of PCK3145 against Mat Ly Lu (MLL) tumor implanted in Copenhagen rats was performed. (Protocol based on S. Garde et al.; The Prostate, 22: 225-233, 1993). Mat LyLu tumor cells were harvested in mid-log phase from the culture flasks by trypsinization, were centrifuged at 1200 rotation per minute (rpm) and washed three timed with Hanks balanced salt solution (HBSS). Following washing, cells were counted and adjusted to a concentration of 5×10^6 cells/ml in HBSS. A 0.1 ml volume of tumor cell inoculum containing 5×10^5 cells was administered subcutaneously into the flank region of each rat. Treatment started at day 3 post-tumor implantation (p.t.i) by local subcutaneous injection (i.e., in the shaved back area just below tumor implantation site) of various PCK3145 concentrations. This treatment was continued daily for 16 days. Experiments were terminated 24 hours after the last treatment. Tumor measurements were taken at days 7, 9, 11, 14, 16 and 18. Tumor volumes are calculated according to formula (a×b^2×0.5), where a—is the length of the long diameter, b—width of the perpendicular small diameter. At day 19 tumors of individual rats were excised and weighed.
Study No: MLL-5 illustrates the efficacy of PCK3145 (SEQ ID NO: 5) compared with polypeptide 7-21 (SEQ ID NO: 4) and polypeptide 76-94 (SEQ ID NO: 6) in tumor growth retardation in Copenhagen rats, which have received Mat Ly Lu implants. Mice were separated in different groups, each receiving various amount of PCK3145 (SEQ ID NO: 5) or control reagents. PCK3145 was injected through the subcutaneous route. The different groups used in these experiments are illustrated in table 8 below. Each group contained 8 mice.
Study No: MLL-6 illustrates the efficacy of PCK3145 (SEQ ID NO: 5) in tumor growth retardation in Copenhagen rats, which have received Mat Ly Lu implants. Mice were separated in different group each receiving various amounts of PCK3145 (SEQ ID NO: 5) or control reagents. PCK3145 was injected through the subcutaneous route. The different groups used in these experiments are illustrated in table 9 below. Each group contained 8 mice. Doxorubicin was administered as single bolus via intra-venous injection on day 3 p.t.i.

Mat Ly Lu (MLL) tumor [2] = experiment: Study MLL-1, Mat LyLu tumor implanted in nude mice; type: in vivo; details: Doxorubicin 5 mg/kg i.v. single bolus on day 3; p=0.006
Method: as §1
Experiments illustrated in FIG. 12 show the anti-tumor efficacy validation of rHuPSP94 against Mat LyLu (MLL) tumor implanted in nude mice (Protocol based on S. Garde et al.; The Prostate, 22: 225-233, 1993).
For study MLL-1 (FIG. 12), tumor-implanted nude mice were separated in different groups, each receiving various amount of rHuPSP94 or control reagents. The different groups used in these experiments are illustrated below. Each group contained 8 mice.

human PC-3 tumor = experiment: Studies PC3-6 and PC3-12, human PC-3 prostate cancer nude mouse xenograft model; type: in vivo, nude mice; details: Doxorubicin 10000 μg/kg single bolus i.v. on days 3 and 11 p.t.i
Excerpt: Studies PC3-6 and PC3-12 (FIGS. 26-27) are consecutive group experiments designed to characterize the in vivo activity of PCK3145 in the human PC-3 prostate cancer nude mouse xenograft model and to explore relationships between dose, route and schedule of administration and the efficacy parameters of tumor growth (volume).
PC-3 cells harvested in mid-log phase were inoculated at 5×10^6 cells per mice via the subcutaneous route in the mice's back area. Tumors grown from this inoculum were excised at approximately day 32 to 35 post-tumor implantation (p.t.i) when tumor volume reached 200-300 mm^3 (i.e., cu mm). The necrotic tissue was removed and the viable tumor mass cut into small pieces (approximately 1 to 3 mm^3) were implanted SC in the flank region at two opposite sites of the mouse. Treatment with various concentrations of PCK3145 was initiated at day 3 post-tumor implantation (p.t.i) and was continued daily for 21 days. Subcutaneous injections were done below tumor growth sites. Intra-peritoneal injections were performed in the abdominal region. Intra-venous injections were performed via the lateral tail vein. The experiment was terminated 24 hours after the last treatment. Tumor measurements were taken at Days 11, 14, 16, 18, 20, 22 and 24 post-tumor implantation (p.t.i). Tumor volumes were calculated according to formula (a×b^2×0.5), where a—is the length of the long diameter, and b—is the width of the perpendicular small diameter.
Study No: PC3-6 illustrates the efficacy of PCK3145, injected subcutaneously, in tumor growth retardation in Nude mice, which have received PC-3 implants. Mice were separated in different group each receiving various amounts of PCK3145 (SEQ ID NO: 5) or control reagents. The different groups used in these experiments are illustrated in table 6 below. Each group contained 10 mice. Doxorubicin was administered as single bolus intra-venous injection on days 3 and 11 post-tumor implantation (p.t.i).
Study No: PC3-12 illustrates the efficacy of PCK3145 in tumor growth retardation in Nude mice, which have received PC-3 implants. Mice were separated in different group each receiving various amounts of PCK3145 (SEQ ID NO: 5) or control reagents. PCK3145 was injected either through intra-venous or intra-peritoneal route. The different groups used in these experiments are illustrated in table 7 below. Each group contained 9 mice.

Compound: COc1cccc2c1C(=O)c1c(O)c3c(c(O)c1C2=O)C[C@@](O)(C(=O)CO)C[C@@H]3O[C@H]1C[C@H](N)[C@H](O)[C@H](C)O1 [Doxorubicin, reference compound]
- DNA laddering effect (FIG. 25 lane 3) (PC-3 cells; 2 μg/ml): DNA laddering effect
- DNA laddering effect (FIG. 7 lane 2) (PC-3 cells; doxorubicin-treated cells): DNA laddering effect
- tumor weight reduction (Mat Ly Lu (MLL) tumor [1]): 82%
- reduction in tumor volumes, study MLL-6 (Dunning Mat Ly Lu tumors): over 80%
- tumor weight reduction (Mat Ly Lu (MLL) tumor [2]): 48%
- tumor growth (volume), study PC3-6 (human PC-3 tumor): highly significant anti-tumor therapeutic effect
